Measurements published in PubChem BioAssay (NCI).
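These data come from cells grown in 96-well plates and exposed to compound for 48 hours at five concentrations. Abbreviation: GI50, concentration required for 50% inhibition of growth. TGI: concentration producing complete growth inhibition.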

How the values were obtained:
Test in all cases: NCI tumour cell line growth inhibition, 48 h
[1] = test system: HOP-92 NSCLC
[2] = test system: OVCAR-5 ovarian
[3] = test system: DLD-1 colon
[4] = test system: NCI-H23 lung
[5] = test system: KM20L2 colon
[6] = test system: OVCAR-8 ovarian
[7] = test system: SNB-75 CNS
[8] = test system: TK-10 renal
[9] = test system: NCI-H226 lung
[10] = test system: HS 578T breast
[11] = test system: P388 leukemia
[12] = test system: SN12K1 renal

Compound | TGI [1] [µM] | TGI [2] [µM] | TGI [3] [µM] | TGI [4] [µM] | TGI [5] [µM] | TGI [6] [µM] | TGI [7] [µM] | TGI [8] [µM] | GI50 [1] [µM] | GI50 [9] [nM] | TGI [9] [µM] | GI50 [10] [µM] | TGI [10] [µM] | GI50 [2] [nM] | GI50 [4] [nM] | GI50 [7] [µM] | GI50 [8] [µM] | TGI [11] [µM] | TGI [12] [µM] | GI50 [6] [pM]
CC(OC(C)(C)C)[C@H](NC(=O)OCC(Cl)(Cl)Cl)C(=O)O (some centres not stated) | > 100 | > 100 | > 100 | > 100 | > 100 | > 100 | > 100 | > 100 | – | – | – | – | – | – | – | – | – | – | – | –
O=C(Cn1c[n+](CC(=O)c2ccc(-c3ccccc3)cc2)c2ccccc21)Nc1cccc2cccnc12 | 2.18 | 2.84 | – | 3.02 | – | – | 4.03 | 3.74 | 0.677 | 2020 | 7.33 | 1.7 | 4.3 | 1500 | 1520 | 1.65 | 2.01 | – | – | –
O=C(O)CCC(NC(=O)c1ccc(Nc2nc3cc(C(F)(F)F)ccc3nc2-c2ccccc2)cc1)C(=O)O (configuration not stated) | > 100 | > 100 | > 100 | > 100 | 53.3 | > 100 | > 100 | – | – | – | > 100 | – | – | – | – | – | – | > 100 | > 100 | –
COc1ccc2cc(/C=N/NC(=O)Nc3ccccc3)ccc2c1 | > 100 | > 100 | – | > 100 | – | > 100 | > 100 | > 100 | – | – | > 100 | – | > 100 | – | – | – | – | – | – | –
CC1(CCOCc2ccccc2)NC(=O)NC1=O (configuration not stated) | > 100 | > 100 | – | > 100 | – | > 100 | – | > 100 | – | – | > 100 | – | > 100 | – | – | – | – | – | – | –
CC1(C)N=C(N)N=C(N)N1c1ccc(CCc2ccccc2)cc1 | 79.7 | > 88.2 | > 100 | > 100 | > 100 | > 100 | > 94.3 | – | – | – | 59.3 | – | – | – | – | – | – | 12.3 | > 100 | –
NCc1ccccc1-c1c2nc(c(-c3ccccc3CN)c3ccc([nH]3)c(-c3ccccc3CN)c3nc(c(-c4ccccc4CN)c4ccc1[nH]4)C=C3)C=C2 | 22.2 | 33.8 | – | 58.4 | 63 | > 100 | 24.7 | 63.1 | – | – | 33.4 | – | – | – | – | – | – | – | – | –
CCC(/C=C/C1OC(=O)C=CC1C)=C\C(C)C/C=C/C(C)=C/C(C)C(=O)C(C)C(O)C(C)C/C(C)=C/C(=O)O (configuration not stated) | – | 15.5 | 35.8 | 3.87 | 8.33 | 9.77 | 7.17 | – | 5.32 | 0.00172 | – | – | 0.000594 | < 0.001 | 0.00652 | – | – | 6.6 | 4.74 | 1.54
Cc1[nH]nc(C(F)(F)F)c1N=NN1CCOCC1 | 8.32 | 41.7 | – | 15.5 | – | 13.7 | 26.7 | 26.7 | – | – | 30.4 | – | 40.5 | – | – | – | – | – | – | –
